Reference: patent US20240109900A1, “AZABICYCLIC SHP2 INHIBITORS” (IRBM S.P.A., priority 2021, published 2024)
pIC50: −log10 of the molar value. Read-outs that look alike come from different tables or passages of the source. Each block holds one molecule with its values, some of them ahead of it.

Columns and labels:
[1] = test system: ERK phosphorylation in KYSE-520 cells; test: Phospho-ERK cellular assay; format: cell-based; settings: KYSE-520 cells, 2 h at 37° C., phospho-ERK1/2 (Thr202/Tyr204) TR-FRET, read-out: PERK IC50
Method in brief: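 TR-FRET read-out of ERK1/2 Thr202/Tyr204 phosphorylation was taken after overnight antibody incubation at room temperature. Before that, KYSE-520 cells were treated 2 h at 37 °C with compound dilutions and lysed 30 min. Percent inhibition relative to vehicle and cell-free wells was fitted four-parametrically to give IC50.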

[2] = target: SHP-2 enzyme (Met1-Leu525) (Homo sapiens (Human), UniProt Q06124); test: SHP2 inhibition enzymatic assay; format: biochemical; settings: 0.5 nM SHP-2 activated by 500 nM IRS1 peptide, 75 μM DiFMUP substrate; read-out: SHP2wt-IC50
Method in brief: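 SHP-2 (Met1-Leu525), 0.5 nM, activated with 500 nM IRS1 bis-phosphopeptide, preincubated 30 min with compounds in HEPES pH 7.2 buffer with 5 mM DTT. 75 μM DiFMUP added for 30 min at room temperature, stopped with bpV; fluorescence read. IC50 from four-parameter logistic fit of % inhibition.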

Sequence of SHP-2 enzyme (Met1-Leu525) (Q06124 1-525): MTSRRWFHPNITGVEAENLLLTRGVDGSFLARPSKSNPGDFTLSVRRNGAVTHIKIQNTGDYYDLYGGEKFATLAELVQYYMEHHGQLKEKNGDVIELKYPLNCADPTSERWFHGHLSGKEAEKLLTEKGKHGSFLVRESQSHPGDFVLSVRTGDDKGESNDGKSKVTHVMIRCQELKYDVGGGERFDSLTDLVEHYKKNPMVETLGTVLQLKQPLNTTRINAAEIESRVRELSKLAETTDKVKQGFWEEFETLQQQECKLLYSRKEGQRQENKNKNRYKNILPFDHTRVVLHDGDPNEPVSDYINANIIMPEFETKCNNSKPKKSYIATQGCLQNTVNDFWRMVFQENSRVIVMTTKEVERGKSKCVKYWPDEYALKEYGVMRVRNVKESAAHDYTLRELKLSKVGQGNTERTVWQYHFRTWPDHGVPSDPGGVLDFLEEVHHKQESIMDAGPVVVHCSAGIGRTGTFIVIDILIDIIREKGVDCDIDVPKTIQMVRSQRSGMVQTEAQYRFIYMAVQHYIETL

SMILES: NC[C@]1(c2ccccc2F)[C@@H]2CCN(c3cnc4c(-c5ccc6nn(C7CC7)cc6c5Cl)n[nH]c4n3)C[C@@H]21 [Example 420]
pIC50 [1]: > 6.00
pIC50 [2]: > 6.30

SMILES: NC[C@]1(c2ccccc2F)[C@@H]2CCN(c3cnc(Sc4ccc(C(N)=O)cc4Cl)cn3)C[C@@H]21 [Example 421, 4-((5-((1S,6R,7R)-7-(aminomethyl)-7-(2-fluorophenyl)-3-azabicyclo[4.1.0]heptan-3-yl)pyrazin-2-yl)thio)-3-chlorobenzamide]
pIC50 ([1]; Homo sapiens, KYSE-520, 2 h): > 6.00
pIC50 [2]: > 6.30

SMILES: Cc1c(-c2ccc3nc(N4CC[C@@H]5[C@H](C4)[C@@]5(CN)c4ccccc4F)cnc3n2)ccc2nn(C)cc12 [Example 425, ((1S,6R,7R)-3-(6-(2,4-dimethyl-2H-indazol-5-yl)pyrido[2,3-b]pyrazin-2-yl)-7-(2-fluorophenyl)-3-azabicyclo[4.1.0]heptan-7-yl)methanamine]
pIC50 ([1]; Homo sapiens, KYSE-520, 2 h): > 6.00
pIC50 [2]: > 6.30

SMILES: Cn1cc2c(Cl)c(Sc3cnc(N4CC[C@@H]5[C@H](C4)[C@@]5(CN)c4ccccc4F)cn3)ccc2n1 [Example 427, ((1S,6R,7R)-3-(5-((4-chloro-2-methyl-2H-indazol-5-yl)thio)pyrazin-2-yl)-7-(2-fluorophenyl)-3-azabicyclo[4.1.0]heptan-7-yl)methanamine]
pIC50 ([1]; Homo sapiens, KYSE-520, 2 h): > 6.00
pIC50 [2]: > 6.30

SMILES: CN(C)C(=O)Cn1cc2c(Cl)c(-c3n[nH]c4nc(N5CC[C@@H]6[C@H](C5)[C@@]6(CN)c5ccccc5F)cnc34)ccc2n1 [Example 428]
pIC50 [1]: > 6.00
pIC50 [2]: > 6.30

SMILES: NC[C@]1(c2cccc(F)c2F)[C@@H]2CCN(c3cnc(Sc4ccnc(N)c4Cl)c(N)n3)C[C@@H]21 [Example 429, 3-((2-amino-3-chloropyridin-4-yl)thio)-6-((1S,6R,7R)-7-(aminomethyl)-7-(2,3-difluorophenyl)-3-azabicyclo[4.1.0]heptan-3-yl)pyrazin-2-amine]
pIC50 ([1]; Homo sapiens, KYSE-520, 2 h): > 6.00
pIC50 [2]: > 6.30

Next, values leading:

pIC50 ([1]; Homo sapiens, KYSE-520, 2 h): > 6.00
pIC50 [2]: > 6.30
SMILES: Cc1nccc(Sc2ccc3nc(N4CC[C@@H]5[C@H](C4)[C@@]5(CN)c4ccccc4F)cnc3n2)c1F [Example 419, ((1S,6R,7R)-3-(6-((3-fluoro-2-methylpyridin-4-yl)thio)pyrido[2,3-b]pyrazin-2-yl)-7-(2-fluorophenyl)-3-azabicyclo[4.1.0]heptan-7-yl)methanamine]

pIC50 ([1]; Homo sapiens, KYSE-520, 2 h): > 6.00
pIC50 [2]: > 6.30
SMILES: NC[C@]1(c2ccccc2F)[C@@H]2CCN(c3cnc(Sc4cccc5ncccc45)cn3)C[C@@H]21 [Example 422, ((1S,6R,7R)-7-(2-fluorophenyl)-3-(5-(quinolin-5-ylthio)pyrazin-2-yl)-3-azabicyclo[4.1.0]heptan-7-yl)methanamine]

pIC50 ([1]; Homo sapiens, KYSE-520, 2 h): < 5.30
pIC50 [2]: > 6.30
SMILES: Cc1nccc(Sc2cnc(N3CC[C@@H]4[C@H](C3)[C@@]4(CN)c3ccccc3F)cn2)c1F [Example 423, ((1S,6R,7R)-3-(5-((3-fluoro-2-methylpyridin-4-yl)thio)pyrazin-2-yl)-7-(2-fluorophenyl)-3-azabicyclo[4.1.0]heptan-7-yl)methanamine]

pIC50 ([1]; Homo sapiens, KYSE-520, 2 h): > 6.00
pIC50 [2]: > 6.30
SMILES: Cc1nccc(Sc2cnc(N3CC[C@@H]4[C@H](C3)[C@@]4(CN)c3cc(F)ccc3F)cn2)c1F [Example 424, ((1S,6R,7R)-7-(2,5-difluorophenyl)-3-(5-((3-fluoro-2-methylpyridin-4-yl)thio)pyrazin-2-yl)-3-azabicyclo[4.1.0]heptan-7-yl)methanamine]

pIC50 ([1]; Homo sapiens, KYSE-520, 2 h): > 6.00
pIC50 [2]: > 6.30
SMILES: Cc1nccc(Sc2ccc3nc(N4CC[C@@H]5[C@H](C4)[C@@]5(CN)c4cc(F)ccc4F)cnc3n2)c1F [Example 426, ((1S,6R,7R)-7-(2,5-difluorophenyl)-3-(6-((3-fluoro-2-methylpyridin-4-yl)thio)pyrido[2,3-b]pyrazin-2-yl)-3-azabicyclo[4.1.0]heptan-7-yl)methanamine]
